In patent publication EP1754489A1, “A method of treating vitiligo using synergistic formation” (Ramaiah, Abburi, Prof., priority 2005, dated 2007):

Tests used:
fast spreading vitiligo = assay: Clinical trial: arrest of disease activity with oral minipulse (OMP) of beta methasone with or without local active peptide; assay type: in vivo, human volunteers
Description: (§1) That this happens was shown in a clinical trial on human volunteers. The above twin objectives were accomplished. Fig.2a describes two vitiligo patches at the start of treatment of oral steroids, while 2b describes the same patches at the end of 3 months of treatment with oral steroids while at the same time bFGF peptide(s) lotion was applied locally once a day on the lower vitiligo patch for the duration of intake of oral steroids. […] The arrest of the fast spread of the disease was accomplished to the same extent of 84% at the end of 6 months of treatment with oral steroids and the result was not altered by the local application of bFGF peptide(s) lotion (See table 3 for more details).

[1] = system: vitiligo patches of volunteers; assay: Clinical trial: repigmentation with oral minipulse of beta methasone with or without local active peptide; assay type: in vivo, human volunteers
Description: as §1
At the end of 3 months of combinatorial treatment with steroids and local application of bFGF lotion more than 3 fold more patients got pigmented to a marked extent than with steroid alone (See Table 4 for more details). The percentage of volunteers who had moderate and marked rate of repigmentation with combinatorial therapy at the end of three months of treatment is twice than the steroid therapy alone.

C[C@H]1C[C@H]2[C@@H]3CCC4=CC(=O)C=C[C@]4(C)[C@@]3(F)[C@@H](O)C[C@]2(C)[C@@]1(O)C(=O)CO [OMP Alone, beta methasone]
No. of patients where the disease was arrested with time (fast spreading vitiligo; At 3 months): 12
Patients where the disease was arrested, percent (fast spreading vitiligo; At 3 months): 75%
No. of patients where the disease was arrested with time (fast spreading vitiligo; At 6 months): 14
Patients where the disease was arrested, percent (fast spreading vitiligo; At 6 months): 87.5%
Patients where the disease was arrested, percent (fast spreading vitiligo; At 6 months, listed as oral steroids): 84%
Repigmentation Marked, number of volunteers ([1]; At 3 months): 2
Repigmentation Minimal, number of volunteers ([1]; At 3 months): 11
Repigmentation Moderate, number of volunteers ([1]; At 3 months): 3
Repigmentation Marked, number of volunteers ([1]; At 6 months): 4
Repigmentation Minimal, number of volunteers ([1]; At 6 months): 8
Repigmentation Moderate, number of volunteers ([1]; At 6 months): 4
